ChEMBL document CHEMBL1201862, “PubChem BioAssay data set” (2004)
Active and inactive are the calls of the source.

Tests used:
[1] = target: T1, Corticotropin-releasing factor receptor 2/Corticotropin-releasing factor-binding protein (Homo sapiens, UniProt P24387+Q13324); experiment: Dose Response confirmation of uHTS hits for small molecule antagonists of the CRF-binding protein and CRF-R2 receptor complex.; assay type: functional; settings: read-out: IC50_Mean
T1 sequence (Q13324 whole entry): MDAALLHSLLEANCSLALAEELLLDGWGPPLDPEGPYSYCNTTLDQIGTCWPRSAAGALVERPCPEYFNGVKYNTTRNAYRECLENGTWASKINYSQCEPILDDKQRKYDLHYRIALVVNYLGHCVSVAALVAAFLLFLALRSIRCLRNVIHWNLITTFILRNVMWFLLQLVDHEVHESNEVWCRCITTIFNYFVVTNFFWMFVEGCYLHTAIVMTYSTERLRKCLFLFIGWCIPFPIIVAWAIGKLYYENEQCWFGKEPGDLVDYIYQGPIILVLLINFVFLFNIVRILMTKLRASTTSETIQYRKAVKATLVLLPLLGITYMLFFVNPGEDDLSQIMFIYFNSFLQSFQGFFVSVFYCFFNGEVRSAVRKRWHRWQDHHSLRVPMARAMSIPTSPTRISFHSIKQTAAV
T1 sequence (P24387 whole entry): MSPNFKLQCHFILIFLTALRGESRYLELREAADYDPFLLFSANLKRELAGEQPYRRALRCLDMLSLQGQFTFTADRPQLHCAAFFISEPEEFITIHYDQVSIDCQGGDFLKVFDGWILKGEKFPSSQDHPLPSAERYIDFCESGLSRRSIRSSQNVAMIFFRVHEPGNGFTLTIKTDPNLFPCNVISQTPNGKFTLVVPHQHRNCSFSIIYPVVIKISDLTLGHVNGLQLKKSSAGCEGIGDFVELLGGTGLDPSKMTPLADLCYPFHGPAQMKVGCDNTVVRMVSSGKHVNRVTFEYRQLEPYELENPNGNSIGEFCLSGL

[2] = blockers of CRF-binding protein–CRF-R2 complex – cell-based, uHTS hits, 384-well, dose response (AID 651639); assay type: functional, Homo sapiens; settings: read-out: IC50_Mean
[3] = target: T1, Corticotropin-releasing factor receptor 2/Corticotropin-releasing factor-binding protein; experiment: activators of CRF receptor 2 with binding protein – uHTS hits, confirmation (AID 602473); assay type: functional; settings: read-out: EC50_Mean
[4] = inhibition of ARNT PAS-B/TACC3 complex formation – biochemical, AlphaScreen, cherry-picked samples, confirmation (AID 651703); assay type: functional, Homo sapiens;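 also: His-tagged ARNT PAS-B domain paired with GST-TACC3 E629A dimer coactivator fragment; potency of inhibitors that break up the complex and lower AlphaScreen signal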
Caspase-3 = target: T2, Caspase-3 (Homo sapiens, UniProt P42574); assay type: functional;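 also: Dose-response selectivity test against caspase-3 for candidate inhibitors of sentrin-specific proteases (SENPs)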
T2 sequence (P42574 whole entry): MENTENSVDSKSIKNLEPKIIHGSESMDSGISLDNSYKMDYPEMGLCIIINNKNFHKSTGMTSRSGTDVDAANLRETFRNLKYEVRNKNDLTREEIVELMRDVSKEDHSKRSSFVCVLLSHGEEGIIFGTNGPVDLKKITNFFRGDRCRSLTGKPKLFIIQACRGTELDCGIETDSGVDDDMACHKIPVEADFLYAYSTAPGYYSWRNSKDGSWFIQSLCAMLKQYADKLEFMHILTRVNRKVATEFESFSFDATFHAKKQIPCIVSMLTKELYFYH

[5] = target: T3, Sentrin-specific protease 8 (Homo sapiens, UniProt Q96LD8); assay type: functional;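 also: luminescence read-out of SENP8 inhibition, dose-response confirmation following an ultra-high-throughput screen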
T3 sequence (Q96LD8 whole entry): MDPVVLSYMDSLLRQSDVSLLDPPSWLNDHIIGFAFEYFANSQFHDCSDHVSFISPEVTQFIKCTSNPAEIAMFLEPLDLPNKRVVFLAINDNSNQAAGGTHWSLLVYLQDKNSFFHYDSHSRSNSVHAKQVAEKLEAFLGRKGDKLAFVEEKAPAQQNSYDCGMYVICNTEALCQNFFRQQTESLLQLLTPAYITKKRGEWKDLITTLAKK

[6] = target: T4, Sentrin-specific protease 7 (Homo sapiens, UniProt Q9BQF6); assay type: functional;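 also: Luminescence-based dose-response confirmation of ultra-high-throughput screening hits, measuring inhibition of SENP7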
T4 sequence (Q9BQF6 whole entry): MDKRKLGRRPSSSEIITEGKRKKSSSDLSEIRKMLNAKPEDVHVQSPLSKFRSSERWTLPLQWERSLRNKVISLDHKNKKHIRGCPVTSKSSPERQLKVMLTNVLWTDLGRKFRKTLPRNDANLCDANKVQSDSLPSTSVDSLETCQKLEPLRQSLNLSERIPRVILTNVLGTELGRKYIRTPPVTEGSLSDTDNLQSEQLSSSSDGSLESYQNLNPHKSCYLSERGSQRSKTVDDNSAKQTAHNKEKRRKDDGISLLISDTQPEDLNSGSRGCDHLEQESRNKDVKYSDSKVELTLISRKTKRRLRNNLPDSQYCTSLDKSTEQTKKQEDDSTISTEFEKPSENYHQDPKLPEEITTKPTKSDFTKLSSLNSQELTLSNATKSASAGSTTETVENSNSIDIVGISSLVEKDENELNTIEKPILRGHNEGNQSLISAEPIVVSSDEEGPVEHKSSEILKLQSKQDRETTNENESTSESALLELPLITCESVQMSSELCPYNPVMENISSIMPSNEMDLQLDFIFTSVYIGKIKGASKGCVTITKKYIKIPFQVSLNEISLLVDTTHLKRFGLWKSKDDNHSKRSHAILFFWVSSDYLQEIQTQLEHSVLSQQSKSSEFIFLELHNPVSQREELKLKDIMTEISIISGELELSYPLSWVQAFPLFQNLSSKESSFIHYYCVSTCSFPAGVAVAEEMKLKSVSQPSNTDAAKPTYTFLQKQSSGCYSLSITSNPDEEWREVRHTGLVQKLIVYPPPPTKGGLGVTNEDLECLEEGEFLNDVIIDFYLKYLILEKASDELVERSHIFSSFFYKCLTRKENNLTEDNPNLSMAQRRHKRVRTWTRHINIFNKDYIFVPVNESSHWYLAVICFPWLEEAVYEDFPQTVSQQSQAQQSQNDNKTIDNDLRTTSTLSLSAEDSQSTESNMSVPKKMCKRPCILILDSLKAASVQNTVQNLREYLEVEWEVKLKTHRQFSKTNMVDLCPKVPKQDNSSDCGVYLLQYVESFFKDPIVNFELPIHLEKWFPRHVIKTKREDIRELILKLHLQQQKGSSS

[7] = target: T5, Sentrin-specific protease 6 (Homo sapiens, UniProt Q9GZR1); assay type: functional;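 also: Luminescence-based dose-response confirmatory assay of SENP6 inhibition, following up an ultra-high-throughput screen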
T5 sequence (Q9GZR1 whole entry): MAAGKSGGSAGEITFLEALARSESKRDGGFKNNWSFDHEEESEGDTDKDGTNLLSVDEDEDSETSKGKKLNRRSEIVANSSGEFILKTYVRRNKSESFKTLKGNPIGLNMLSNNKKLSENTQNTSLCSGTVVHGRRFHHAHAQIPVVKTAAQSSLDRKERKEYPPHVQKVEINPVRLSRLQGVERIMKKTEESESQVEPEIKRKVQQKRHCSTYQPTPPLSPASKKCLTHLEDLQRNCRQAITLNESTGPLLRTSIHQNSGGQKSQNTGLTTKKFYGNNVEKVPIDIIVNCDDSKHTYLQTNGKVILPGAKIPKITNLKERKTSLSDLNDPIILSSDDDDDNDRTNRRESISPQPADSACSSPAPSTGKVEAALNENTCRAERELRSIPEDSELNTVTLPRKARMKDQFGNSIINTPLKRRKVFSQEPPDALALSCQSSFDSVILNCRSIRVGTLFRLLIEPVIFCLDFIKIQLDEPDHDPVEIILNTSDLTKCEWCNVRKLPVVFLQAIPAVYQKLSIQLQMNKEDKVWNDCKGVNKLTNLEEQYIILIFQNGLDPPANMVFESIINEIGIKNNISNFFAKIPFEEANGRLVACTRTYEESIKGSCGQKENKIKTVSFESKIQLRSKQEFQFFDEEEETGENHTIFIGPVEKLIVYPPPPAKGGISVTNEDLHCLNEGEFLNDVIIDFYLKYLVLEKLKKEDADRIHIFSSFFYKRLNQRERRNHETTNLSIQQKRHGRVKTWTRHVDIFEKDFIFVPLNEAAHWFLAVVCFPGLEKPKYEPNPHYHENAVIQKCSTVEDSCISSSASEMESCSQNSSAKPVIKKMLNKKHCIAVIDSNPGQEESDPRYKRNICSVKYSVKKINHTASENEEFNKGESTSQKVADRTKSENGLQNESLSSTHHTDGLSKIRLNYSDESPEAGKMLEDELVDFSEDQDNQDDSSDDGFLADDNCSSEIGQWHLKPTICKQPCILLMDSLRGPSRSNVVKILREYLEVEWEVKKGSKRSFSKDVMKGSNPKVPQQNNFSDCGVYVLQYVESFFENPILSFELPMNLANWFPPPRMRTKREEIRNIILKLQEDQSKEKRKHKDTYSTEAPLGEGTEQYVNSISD

Large T antigen = Large T antigen (Simian virus 40, UniProt P03070); assay type: functional, Betapolyomavirus macacae;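 also: Confirmatory-stage PubChem screen for compounds that inhibit SV40 T antigen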
[8] = target: T6, Rac GTPase-activating protein 1 (Homo sapiens, UniProt Q9H0H5); experiment: blockers of MgcRacGAP-driven Rac1 GTP hydrolysis – biochemical, ADP Hunter fluorescence, primary and confirmatory, confirmation (AID 624330); assay type: functional
T6 sequence (Q9H0H5 whole entry): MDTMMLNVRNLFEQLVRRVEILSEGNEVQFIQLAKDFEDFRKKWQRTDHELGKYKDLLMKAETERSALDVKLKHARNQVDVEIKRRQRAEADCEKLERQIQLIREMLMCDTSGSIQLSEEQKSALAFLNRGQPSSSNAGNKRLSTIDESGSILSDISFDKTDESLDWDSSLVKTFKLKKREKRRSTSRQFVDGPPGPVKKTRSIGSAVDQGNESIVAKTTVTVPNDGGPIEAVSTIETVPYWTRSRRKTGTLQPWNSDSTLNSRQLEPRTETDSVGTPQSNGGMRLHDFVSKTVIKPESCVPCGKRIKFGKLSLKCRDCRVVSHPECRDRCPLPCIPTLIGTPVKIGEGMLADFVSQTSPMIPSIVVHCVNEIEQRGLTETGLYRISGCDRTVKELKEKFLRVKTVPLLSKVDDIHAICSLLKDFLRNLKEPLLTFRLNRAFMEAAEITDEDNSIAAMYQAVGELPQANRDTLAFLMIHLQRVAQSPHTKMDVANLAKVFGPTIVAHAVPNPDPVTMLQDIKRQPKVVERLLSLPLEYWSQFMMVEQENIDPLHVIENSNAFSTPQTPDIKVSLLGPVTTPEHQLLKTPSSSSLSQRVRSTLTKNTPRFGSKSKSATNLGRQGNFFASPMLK

HEK293 [9] = experiment: cells; assay type: functional, cell-based; settings: Homo sapiens
HEK293 [10] = experiment: cells; assay type: functional, cell-based; settings: Homo sapiens; remark: listed apart in the source
HEK293 [11] = experiment: NOD2 signaling inhibitors in MDP-stimulated cells, cell-based, uHTS, luminescence (AID 2001); assay type: functional; settings: Homo sapiens
[12] = target: Nucleotide-binding oligomerization domain-containing protein 2 (Homo sapiens, UniProt Q9HC29); experiment: inhibition of NOD2-driven NF-kB reporter – cell-based, luminescence, uHTS, HEK293 (AID 1566); assay type: functional
HEK293 [13] = experiment: inhibition of NOD1-driven NF-kB reporter – cell-based, luminescence, uHTS, primary screen (AID 1578); assay type: functional; settings: Homo sapiens
HEK293 [14] = experiment: cells; assay type: functional, cell-based; settings: Homo sapiens; remark: listed apart in the source
Fatty acid synthase [15] = target: T7, Fatty acid synthase (Homo sapiens, UniProt P49327); experiment: inhibition of human FAS-TE enzyme activity – biochemical, kinetic fluorescence intensity, dose response (AID 624326); assay type: functional;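 also: rate of fluorescence rise from hydrolysis of a fluorogenic O-methyl fluorescein ester substrate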
Fatty acid synthase [16] = target: T7, Fatty acid synthase; experiment: inhibition of human FAS-TE enzyme activity – biochemical, endpoint fluorescence intensity, uHTS hits, dose response (AID 624327); assay type: functional;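 also: fluorescence from hydrolysis of an O-methyl fluorescein acyl ester substrate by the enzyme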
[17] = viability of PTEN-deleted HCT116 cells – cell-based, HCT116 PTEN knockout, dose response (AID 1047); assay type: functional;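 also: HCT116 colon tumor cells with PTEN knocked out; cells exposed to compound for 60 hours before readout; potency for loss of cell viability measured by luminescence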
[18] = viability of HCT116 lacking mutant beta-catenin – cell-based, human colon tumor, dose response (AID 1045); assay type: functional;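 also: HCT116 colon tumor cells with beta catenin knocked out; cells exposed to compound for 60 hours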

T7 sequence (P49327 whole entry): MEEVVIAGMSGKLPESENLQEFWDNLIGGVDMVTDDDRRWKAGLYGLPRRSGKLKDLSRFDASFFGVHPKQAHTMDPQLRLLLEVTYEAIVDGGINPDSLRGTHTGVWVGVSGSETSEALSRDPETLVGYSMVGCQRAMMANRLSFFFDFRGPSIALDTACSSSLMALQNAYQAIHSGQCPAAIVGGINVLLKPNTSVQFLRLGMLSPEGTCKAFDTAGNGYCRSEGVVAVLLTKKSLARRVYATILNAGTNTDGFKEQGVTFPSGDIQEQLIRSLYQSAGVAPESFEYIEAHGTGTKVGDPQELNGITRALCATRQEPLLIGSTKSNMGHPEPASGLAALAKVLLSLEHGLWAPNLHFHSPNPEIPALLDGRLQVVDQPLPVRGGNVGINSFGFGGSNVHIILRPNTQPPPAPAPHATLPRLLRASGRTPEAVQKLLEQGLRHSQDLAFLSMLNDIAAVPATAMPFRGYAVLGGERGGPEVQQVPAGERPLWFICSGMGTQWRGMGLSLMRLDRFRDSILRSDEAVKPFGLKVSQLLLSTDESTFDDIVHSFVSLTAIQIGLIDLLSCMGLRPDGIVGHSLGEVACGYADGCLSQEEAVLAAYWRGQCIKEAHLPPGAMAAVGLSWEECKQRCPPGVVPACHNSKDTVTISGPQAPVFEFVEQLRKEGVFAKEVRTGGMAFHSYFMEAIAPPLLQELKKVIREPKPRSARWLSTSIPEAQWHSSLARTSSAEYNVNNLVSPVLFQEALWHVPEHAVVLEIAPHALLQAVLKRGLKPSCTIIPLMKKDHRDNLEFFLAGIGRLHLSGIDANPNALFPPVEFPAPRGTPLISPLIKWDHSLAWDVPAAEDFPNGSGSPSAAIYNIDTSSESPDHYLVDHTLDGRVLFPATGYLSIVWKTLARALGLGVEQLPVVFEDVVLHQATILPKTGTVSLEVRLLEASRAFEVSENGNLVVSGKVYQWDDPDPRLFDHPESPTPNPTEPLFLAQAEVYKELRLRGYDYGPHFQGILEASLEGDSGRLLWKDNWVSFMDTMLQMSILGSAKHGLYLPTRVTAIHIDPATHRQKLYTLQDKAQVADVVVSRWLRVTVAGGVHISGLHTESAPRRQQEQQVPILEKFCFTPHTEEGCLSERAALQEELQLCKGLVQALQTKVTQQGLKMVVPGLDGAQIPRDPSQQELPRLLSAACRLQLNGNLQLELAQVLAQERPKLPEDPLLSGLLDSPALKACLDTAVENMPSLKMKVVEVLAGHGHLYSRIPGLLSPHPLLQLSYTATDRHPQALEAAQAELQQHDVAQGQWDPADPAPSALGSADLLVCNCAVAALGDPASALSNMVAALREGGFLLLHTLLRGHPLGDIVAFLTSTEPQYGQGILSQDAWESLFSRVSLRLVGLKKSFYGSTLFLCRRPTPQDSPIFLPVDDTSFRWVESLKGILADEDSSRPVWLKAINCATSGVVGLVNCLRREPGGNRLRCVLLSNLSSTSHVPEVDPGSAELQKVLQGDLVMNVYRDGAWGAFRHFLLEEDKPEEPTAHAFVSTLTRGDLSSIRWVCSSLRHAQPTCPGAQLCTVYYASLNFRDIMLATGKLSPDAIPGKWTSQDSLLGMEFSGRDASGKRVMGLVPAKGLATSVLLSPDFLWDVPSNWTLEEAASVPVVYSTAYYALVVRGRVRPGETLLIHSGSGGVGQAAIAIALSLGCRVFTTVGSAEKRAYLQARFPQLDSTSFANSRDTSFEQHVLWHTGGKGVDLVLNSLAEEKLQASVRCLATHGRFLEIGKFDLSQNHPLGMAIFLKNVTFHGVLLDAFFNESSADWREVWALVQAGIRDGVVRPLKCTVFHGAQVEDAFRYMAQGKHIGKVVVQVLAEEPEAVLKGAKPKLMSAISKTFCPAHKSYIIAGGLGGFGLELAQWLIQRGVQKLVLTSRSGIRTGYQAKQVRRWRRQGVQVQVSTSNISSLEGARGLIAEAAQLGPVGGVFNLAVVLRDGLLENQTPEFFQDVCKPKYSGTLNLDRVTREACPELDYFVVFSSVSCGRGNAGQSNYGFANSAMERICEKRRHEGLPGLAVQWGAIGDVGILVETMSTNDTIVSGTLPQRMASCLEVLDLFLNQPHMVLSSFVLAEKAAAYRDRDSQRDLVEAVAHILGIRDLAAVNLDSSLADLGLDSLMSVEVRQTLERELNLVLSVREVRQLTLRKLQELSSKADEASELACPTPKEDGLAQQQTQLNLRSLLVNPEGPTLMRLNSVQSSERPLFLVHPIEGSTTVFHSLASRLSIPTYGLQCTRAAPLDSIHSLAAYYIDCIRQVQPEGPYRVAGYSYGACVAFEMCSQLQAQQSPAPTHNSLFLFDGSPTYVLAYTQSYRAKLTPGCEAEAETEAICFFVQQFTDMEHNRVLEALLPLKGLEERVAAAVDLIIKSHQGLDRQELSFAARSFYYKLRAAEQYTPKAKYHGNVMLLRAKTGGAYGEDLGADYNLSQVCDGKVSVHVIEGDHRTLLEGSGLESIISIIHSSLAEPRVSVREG
Chain of Large T antigen (P03070 whole entry): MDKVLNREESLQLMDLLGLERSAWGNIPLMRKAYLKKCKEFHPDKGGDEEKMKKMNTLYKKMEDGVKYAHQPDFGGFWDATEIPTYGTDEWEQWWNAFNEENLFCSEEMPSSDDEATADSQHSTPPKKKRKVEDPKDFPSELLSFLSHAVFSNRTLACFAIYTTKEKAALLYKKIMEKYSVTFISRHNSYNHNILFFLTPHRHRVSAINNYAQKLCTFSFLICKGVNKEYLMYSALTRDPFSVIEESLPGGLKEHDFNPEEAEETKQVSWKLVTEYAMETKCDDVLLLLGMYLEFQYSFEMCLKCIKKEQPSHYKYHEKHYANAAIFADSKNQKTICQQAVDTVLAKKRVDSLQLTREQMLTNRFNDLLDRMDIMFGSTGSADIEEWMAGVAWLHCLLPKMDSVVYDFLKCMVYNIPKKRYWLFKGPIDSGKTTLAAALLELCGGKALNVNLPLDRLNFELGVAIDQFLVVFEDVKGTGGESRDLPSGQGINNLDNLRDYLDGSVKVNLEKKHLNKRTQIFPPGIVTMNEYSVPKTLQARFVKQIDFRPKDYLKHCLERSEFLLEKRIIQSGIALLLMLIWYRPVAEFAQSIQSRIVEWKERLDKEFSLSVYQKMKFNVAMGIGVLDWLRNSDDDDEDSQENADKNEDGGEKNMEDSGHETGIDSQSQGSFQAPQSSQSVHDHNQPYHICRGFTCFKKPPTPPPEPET
Chain of Nucleotide-binding oligomerization domain-containing protein 2 (Q9HC29 whole entry, the tested form may be a part): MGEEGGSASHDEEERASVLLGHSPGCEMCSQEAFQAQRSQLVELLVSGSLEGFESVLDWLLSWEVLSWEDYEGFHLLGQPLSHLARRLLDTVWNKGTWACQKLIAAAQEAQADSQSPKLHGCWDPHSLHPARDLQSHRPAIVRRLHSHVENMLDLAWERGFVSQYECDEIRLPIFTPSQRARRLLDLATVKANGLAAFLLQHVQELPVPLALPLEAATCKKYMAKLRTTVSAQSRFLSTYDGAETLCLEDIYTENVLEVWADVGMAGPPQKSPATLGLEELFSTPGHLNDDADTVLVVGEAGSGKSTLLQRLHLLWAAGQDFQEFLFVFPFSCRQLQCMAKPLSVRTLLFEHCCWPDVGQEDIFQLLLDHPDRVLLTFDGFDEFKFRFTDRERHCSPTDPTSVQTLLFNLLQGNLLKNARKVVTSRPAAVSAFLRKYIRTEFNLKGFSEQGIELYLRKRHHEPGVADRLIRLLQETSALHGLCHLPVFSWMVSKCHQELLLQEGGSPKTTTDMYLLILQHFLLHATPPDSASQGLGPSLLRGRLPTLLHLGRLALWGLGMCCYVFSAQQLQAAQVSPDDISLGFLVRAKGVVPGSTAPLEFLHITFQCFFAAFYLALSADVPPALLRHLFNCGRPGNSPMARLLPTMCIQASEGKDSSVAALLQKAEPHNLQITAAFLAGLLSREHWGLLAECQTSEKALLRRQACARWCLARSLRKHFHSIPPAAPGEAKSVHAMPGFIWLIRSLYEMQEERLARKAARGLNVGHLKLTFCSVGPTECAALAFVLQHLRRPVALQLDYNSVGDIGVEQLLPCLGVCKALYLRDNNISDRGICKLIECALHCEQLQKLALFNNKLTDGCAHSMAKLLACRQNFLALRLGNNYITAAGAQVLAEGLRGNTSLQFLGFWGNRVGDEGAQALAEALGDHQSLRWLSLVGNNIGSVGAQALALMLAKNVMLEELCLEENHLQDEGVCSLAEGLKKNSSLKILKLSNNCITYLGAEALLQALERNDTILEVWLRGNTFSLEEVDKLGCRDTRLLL

SMILES	IC50 [1]	IC50 [2]	EC50 [3]	IC50 (Caspase-3)	IC50 [5]	IC50 [6]	IC50 [7]	also measured
O=C(CCCCn1c(=O)c2ccccc2n(Cc2ccc(F)cc2Cl)c1=O)NCc1ccco1	19.4 µM (active)	> 20 µM (inactive)	> 53 µM (inactive)	–	–	–	–	–
O=C(Nc1ccc2c(c1)[C@@H]1C[C@H](CC(=O)N3CCc4ccccc4C3)O[C@@H](CO)[C@@H]1O2)c1ccc2c(c1)OCO2	–	–	–	–	–	–	–	AC50 [4]: 134 µM (active)
COC(=O)c1sc(-c2ccc(Cl)cc2)cc1N	–	–	–	17.7 µM (active)	67.1 µM (active)	2.96 µM (active)	4.35 µM (active)	–
C(=N\Nc1nc(-c2ccccc2)cs1)/c1cccs1	–	–	–	29.8 µM (active)	31.6 µM (active)	4.19 µM (active)	12.8 µM (active)	–
Cc1ccc(NC(=O)c2ccccc2NS(=O)(=O)c2ccc(F)cc2)cc1S(=O)(=O)N1CCCCC1	2.59 µM (active)	6.13 µM (active)	4.33 µM (active)	–	–	–	–	–
CCOc1cc(/C=N/NC(=O)CSc2cccc3cccnc23)ccc1O	–	–	–	–	–	–	–	IC50 (Large T antigen): 7.45 µM (active); IC50 [8]: 34.2 µM (active); AC50 [4]: 90 µM (active)
O=C1S/C(=C\c2ccc(O)c([N+](=O)[O-])c2)C(=O)N1Cc1cccc([N+](=O)[O-])c1	4.71 µM (active)	> 20 µM (inactive)	> 53 µM (inactive)	–	–	–	–	IC50 (HEK293 [9]): > 20 µM (inactive); IC50 (HEK293 [10]): 17.1 µM (active); IC50 (HEK293 [11]): 5.79 µM (inactive); EC50 [12]: 4.39 µM (active); EC50 (HEK293 [13]): 4.33 µM (active); IC50 (HEK293 [14]): 7.53 µM (active); IC50 (Fatty acid synthase [15]): 3.73 µM (active); IC50 (Fatty acid synthase [16]): 3.83 µM (active)
CCCSC(=N)N/N=C/c1cc(C)ccc1O	–	–	–	46.3 µM (active)	> 100 µM (inactive)	11.4 µM (active)	93.5 µM (active)	EC50 [17]: 32.5 µM (active); EC50 [18]: 30 µM (active)
